Assay results reported in PubChem BioAssay AID330 (DTP/NCI, 2004).
Where “and” joins values, the source holds several entries; their conditions need not be identical. Equal entries are not always repeated. Inconclusive results and toxic doses are left out. Rule for the calls: active = survival T/C of 150% or more; inactive = T/C below 125% in these data.

Tested on: P388 leukemia ip, CD2F1 mice, survival T/C
Assay: NCI In Vivo Anticancer Drug Screen. Data for tumor model P388 Leukemia (intraperitoneal) in CD2F1 (CDF1) mice
Settings: endpoint: median survival time, higher = longer survival
Method in brief: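 Mice carrying the transplanted tumor received test compound or vehicle. Survival was recorded in each group, and the value is the treated-group measurement divided by that of the vehicle-treated control group.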

[1] = dose: 25.0 mg/kg/injection, schedule: Q01DX009 (ip), vehicle: saline with Tween-80
[2] = dose: 200.0 mg/kg/injection, schedule: Q01DX009 (ip), vehicle: saline with Tween-80
[3] = dose: 50.0 mg/kg/injection, schedule: Q01DX005 (ip), vehicle: saline with Tween-80
[4] = dose: 100.0 mg/kg/injection, schedule: Q01DX005 (ip), vehicle: saline with Tween-80
[5] = dose: 200.0 mg/kg/injection, schedule: Q01DX005 (ip), vehicle: saline with Tween-80
[6] = dose: 50.0 mg/kg/injection, schedule: Q01DX009 (ip), vehicle: Klucel (hydroxypropylcellulose) (HPC)
[7] = dose: 100.0 mg/kg/injection, schedule: Q01DX009 (ip), vehicle: Klucel (hydroxypropylcellulose) (HPC)
[8] = dose: 100.0 mg/kg/injection, schedule: Q01DX009 (ip), vehicle: saline
[9] = dose: 200.0 mg/kg/injection, schedule: Q01DX009 (ip), vehicle: saline
[10] = dose: 400.0 mg/kg/injection, schedule: Q01DX009 (ip), vehicle: saline

Measured: T/C

C=CSS/C(=C/N(C=O)Cc1cnc(C)nc1N)CCO
inactive: dose: 25.0 mg/kg/injection, schedule: Q01DX005 (ip), vehicle: Klucel (hydroxypropylcellulose) (HPC) 108 % of control | dose: 50.0 mg/kg/injection, schedule: Q01DX005 (ip), vehicle: Klucel (hydroxypropylcellulose) (HPC) 108 % of control | dose: 100.0 mg/kg/injection, schedule: Q01DX005 (ip), vehicle: Klucel (hydroxypropylcellulose) (HPC) 102 % of control | dose: 200.0 mg/kg/injection, schedule: Q01DX005 (ip), vehicle: Klucel (hydroxypropylcellulose) (HPC) 117 % of control

CCCN1COC(OCC)C(C)(C)C1 (stereo unspecified)
inactive: [1] 110 % of control | [2] 93 % of control

O=C(c1ccccc1)c1nn(-c2ccccc2)c(=O)cc1-c1ccccc1
inactive: [3] 99 % of control | [4] 100 % of control | [5] 100 % of control

Oc1ccc(CCNCc2ccc3c(c2)OCO3)cc1O
inactive: dose: 100.0 mg/kg/injection, schedule: Q04DX002 (ip), vehicle: Klucel (hydroxypropylcellulose) (HPC) 99 % of control | dose: 200.0 mg/kg/injection, schedule: Q04DX002 (ip), vehicle: Klucel (hydroxypropylcellulose) (HPC) 94 % of control

COC(=O)CCC(Br)(Br)Br
inactive: [6] 94 % of control | [7] 99 % of control

CC1CC(=O)OC2CC(C)(C)CC(=O)C12 (stereo unspecified)
inactive: [8] 100 % of control | [9] 100 % of control | [10] 109 % of control

C/C=C(/C)C(=O)OC1CC(C)=C2C(=O)C=C(C)C2C2OC(=O)C(C)(OC(=O)/C(C)=C\C)C12 (stereo unspecified)
inactive: dose: 4.0 mg/kg/injection, schedule: Q01DX009 (ip), vehicle: Klucel (hydroxypropylcellulose) (HPC) 102 % of control | dose: 8.0 mg/kg/injection, schedule: Q01DX009 (ip), vehicle: Klucel (hydroxypropylcellulose) (HPC) 102 % of control | dose: 16.0 mg/kg/injection, schedule: Q01DX009 (ip), vehicle: Klucel (hydroxypropylcellulose) (HPC) 96 % of control | dose: 32.0 mg/kg/injection, schedule: Q01DX009 (ip), vehicle: Klucel (hydroxypropylcellulose) (HPC) 93 % of control

C/C=C1\C[N+]2(C)C3CC1C(C[O-])(C(=O)OC)C2Cc1c3[nH]c2ccccc12 (stereo unspecified)
inactive: dose: 0.75 mg/kg/injection, schedule: Q01DX005 (ip), vehicle: Klucel (hydroxypropylcellulose) (HPC) 97 % of control | dose: 1.5 mg/kg/injection, schedule: Q01DX005 (ip), vehicle: Klucel (hydroxypropylcellulose) (HPC) 91 % of control | dose: 3.0 mg/kg/injection, schedule: Q01DX005 (ip), vehicle: Klucel (hydroxypropylcellulose) (HPC) 96 % of control | dose: 6.0 mg/kg/injection, schedule: Q01DX005 (ip), vehicle: Klucel (hydroxypropylcellulose) (HPC) 92 % of control

c1ccc2c3c([nH]c2c1)[C@@H]1CCN2CCC[C@@H]2N1CC3
inactive: dose: 5.75 mg/kg/injection, schedule: Q01DX005 (ip), vehicle: Klucel (hydroxypropylcellulose) (HPC) 101 % of control | dose: 11.5 mg/kg/injection, schedule: Q01DX005 (ip), vehicle: Klucel (hydroxypropylcellulose) (HPC) 100 % of control | dose: 23.0 mg/kg/injection, schedule: Q01DX005 (ip), vehicle: Klucel (hydroxypropylcellulose) (HPC) 95 % of control | dose: 46.0 mg/kg/injection, schedule: Q01DX005 (ip), vehicle: Klucel (hydroxypropylcellulose) (HPC) 93 % of control

COc1cc(NCCCCCCNC(C)C)c2nccc(C)c2c1
inactive: dose: 3.13 mg/kg/injection, schedule: Q01DX009 (ip), vehicle: saline 91 % of control | dose: 6.25 mg/kg/injection, schedule: Q01DX009 (ip), vehicle: saline 99 % of control | dose: 12.5 mg/kg/injection, schedule: Q01DX009 (ip), vehicle: saline 99 % of control

CC(CN(C)C)C(/C=C/c1ccc(Cl)cc1)=N\NC(=O)c1ccccc1 (stereo unspecified)
inactive: dose: 15.0 mg/kg/injection, schedule: Q01DX005 (ip), vehicle: saline 101 % of control | dose: 30.0 mg/kg/injection, schedule: Q01DX005 (ip), vehicle: saline 100 % of control | dose: 60.0 mg/kg/injection, schedule: Q01DX005 (ip), vehicle: saline 104 % of control and 121 % of control | dose: 120.0 mg/kg/injection, schedule: Q01DX005 (ip), vehicle: saline 114 % of control

CCOC(=O)C1=CNc2ccccc2N=C1N
inactive: dose: 6.25 mg/kg/injection, schedule: Q01DX005 (ip), vehicle: saline with Tween-80 112 % of control | dose: 12.5 mg/kg/injection, schedule: Q01DX005 (ip), vehicle: saline with Tween-80 115 % of control | dose: 25.0 mg/kg/injection, schedule: Q01DX005 (ip), vehicle: saline with Tween-80 113 % of control

Oc1ccc(N=Cc2ccccn2)cc1
inactive: [1] 94 % of control | dose: 50.0 mg/kg/injection, schedule: Q01DX009 (ip), vehicle: saline with Tween-80 105 % of control and 88 % of control | dose: 100.0 mg/kg/injection, schedule: Q01DX009 (ip), vehicle: saline with Tween-80 107 % of control and 88 % of control | [2] 103 % of control

CC1SCCCS1
inactive: dose: 50.0 mg/kg/injection, schedule: Q01DX009 (ip), vehicle: saline 98 % of control | [8] 98 % of control | [9] 97 % of control | [10] 97 % of control

c1cnc2c(OCCOCCOCCOCCOc3cccc4cccnc34)cccc2c1
inactive: [3] 90 % of control | [4] 90 % of control | [5] 98 % of control

COc1ccc2c(c1O)-c1cccc3c1[C@@H](C2)N(CCOC(=O)NCCCl)CC3
inactive: dose: 9.38 mg/kg/injection, schedule: Q04DX003 (ip), vehicle: distilled water + Tween-80 101 % of control | dose: 18.75 mg/kg/injection, schedule: Q04DX003 (ip), vehicle: distilled water + Tween-80 99 % of control | dose: 37.5 mg/kg/injection, schedule: Q04DX003 (ip), vehicle: distilled water + Tween-80 97 % of control | dose: 75.0 mg/kg/injection, schedule: Q04DX003 (ip), vehicle: distilled water + Tween-80 99 % of control | dose: 150.0 mg/kg/injection, schedule: Q04DX003 (ip), vehicle: distilled water + Tween-80 99 % of control | dose: 300.0 mg/kg/injection, schedule: Q04DX003 (ip), vehicle: distilled water + Tween-80 105 % of control

NC(Cc1csc2ccc(Cl)cc12)C(=O)O (stereo unspecified)
inactive: dose: 50.0 mg/kg/injection, schedule: Q01DX001 (ip), vehicle: Klucel (hydroxypropylcellulose) (HPC) 102 % of control | dose: 100.0 mg/kg/injection, schedule: Q01DX001 (ip), vehicle: Klucel (hydroxypropylcellulose) (HPC) 100 % of control

CC(C)N(C(=S)/N=C1/SCS(=O)(=O)N1C)C(C)C
inactive: dose: 50.0 mg/kg/injection, schedule: Q04DX003 (ip), vehicle: saline with Tween-80 101 % of control | dose: 100.0 mg/kg/injection, schedule: Q04DX003 (ip), vehicle: saline with Tween-80 104 % of control | dose: 200.0 mg/kg/injection, schedule: Q04DX003 (ip), vehicle: saline with Tween-80 104 % of control

OCC(O)COCCCCCCCCCCCC1C=CCC1 (stereo unspecified)
inactive: dose: 100.0 mg/kg/injection, schedule: Q04DX003 (ip), vehicle: saline 99 % of control | dose: 200.0 mg/kg/injection, schedule: Q04DX003 (ip), vehicle: saline 99 % of control | dose: 400.0 mg/kg/injection, schedule: Q04DX003 (ip), vehicle: saline 99 % of control

CCCOCCOCCOC(C)Oc1ccc(OC)cc1 (stereo unspecified)
inactive: dose: 60.0 mg/kg/injection, schedule: Q01DX005 (ip), vehicle: saline with Tween-80 105 % of control | dose: 120.0 mg/kg/injection, schedule: Q01DX005 (ip), vehicle: saline with Tween-80 104 % of control | dose: 240.0 mg/kg/injection, schedule: Q01DX005 (ip), vehicle: saline with Tween-80 104 % of control

O=C(O)C(Cc1ccccc1)N1C(=O)C=CC1=O (stereo unspecified)
inactive: dose: 10.0 mg/kg/injection, schedule: Q01DX009 (ip), vehicle: saline with Tween-80 112 % of control | dose: 20.0 mg/kg/injection, schedule: Q01DX009 (ip), vehicle: saline with Tween-80 107 % of control | dose: 40.0 mg/kg/injection, schedule: Q01DX009 (ip), vehicle: saline with Tween-80 104 % of control and 95 % of control | [6] 89 % of control | [7] 90 % of control
